From patent US10966999B2, “3′3′ cyclic dinucleotides with phosphonate bond activating the sting adaptor protein” (INSTITUTE OF ORGANIC CHEMISTRY AND BIOCHEMISTRY ASCR, V.V.I., priority 2017, dated 2021)

Legend:
[1] = molecular target: T1, human wild type STING (WT STING) (Homo sapiens, UniProt Q86WV6, H232R); assay: Digitonin assay using 293T wtSTING-FL reporter cells; format: cell-based; settings: 293T wtSTING-FL cells; ISRE firefly luciferase reporter; 30 min in Digitonin buffer, then 5 hours; 8-point dose-response curve
T1 construct: host or cells: 293T (ATCC CRL-3216), stably transfected, with a 4xISRE firefly luciferase reporter
Source text: ISRE Reporter Plasmid (pGL64.27-4×ISRE)
Two complementary oligonucleotides of the sequence […] […] […] […] […] The oligonucleotides were mixed in equal molar amounts, hybridized, and cleaved by restriction endonucleases HindIII (cat. #. R0104S, NEB, Ipswich, USA) and BglII (cat. #R0144S, NEB, Ipswich, USA). Ultimately, they were ligated into plasmid pGL4.27 (cat. #E6651, Promega, Madison, USA) linearized with the same enzymes. As result the sequence with four ISRE sites was placed upstream of the minimum promoter of firefly luciferase reporter gene.
After 5 minutes incubation at room temperature (RT), 250 μL of the mixture was added dropwise to the cells in one well. Cells were incubated 36 hours at 37° C. with 5% CO2, and then detached with 0.05% Trypsin and 0.22 g/L EDTA (both cat. #L0941, Biowest, Riverside, USA).
Transfected cells were seeded onto poly-D-lysine coated six well plates at density 50,000 cells per 1 cm^2 in DMEM medium with high glucose containing 10% heat inactivated FBS, 30 μg/mL blasticidin (cat. #ant-bl-05, InvivoGen, San Diego, USA), 0.06 mg/ml Penicillin G and 0.1 mg/ml Streptomycin Sulfate (both cat. #. L0018, Biowest, Riverside, USA). The medium was replenished every 3-4 days until visible colonies of cells resistant to blasticidin were formed.
Blasticidin resistant cells stably expressing WT STING were further transfected with pGL64.27-4×ISRE plasmid following the same procedure as described above. […] Homogeneous culture of stably double transfected cells was prepared by limiting dilution of cells in 96 well plates and wells with cells were selected that originated from a single cell.
The medium was removed next day and three fold serial dilutions of compounds in Digitonin buffer containing 50 mmol·l^−1 HEPES (cat. #H3375, Sigma Aldrich, Czech Republic) pH 7.0, 100 mmol·l^−1 KCl, 3 mmol·l^−1 MgCl2, 0.1 mmol·l^−1 DTT (cat. #D0632, Sigma Aldrich, Czech Republic), 85 mmol·l^−1 Sucrose (cat. #S7903, Sigma Aldrich, Czech Republic), 0.2% BSA (cat. #A2153, Sigma Aldrich, Czech Republic), 1 mmol·l^−1 ATP (cat. #A1852, Sigma Aldrich, Czech Republic), 0.1 mmol·l^−1 GTP (cat. #G8877, Sigma Aldrich, Czech Republic), and 10 μg/mL Digitonin A (cat. #D141, Sigma Aldrich, Czech Republic) were added to the cells. The buffer was removed after 30 minutes incubation at 37° C. with 5% CO2, the cells were washed once with 100 μl of cultivation medium, and 100 μl of medium was added to each well. The plates with cells were incubated for 5 hours at 37° C. with 5% CO2, 50 μl of the medium was removed and 30 μl of ONE-Glo™ Luciferase Assay System reagent (cat. #E6120, Promega, Madison, USA) was added to each well. Luminescence was read on Synergy H1 (Biotek, Winooski, USA).

AQ STING (G230A-R293Q) = molecular target: T2, AQ STING (G230A-R293Q) (Homo sapiens, UniProt Q86WV6, G230A/H232R/R293Q); assay: Differential Scanning Fluorimetry (DSF) with AQ STING; format: binding; settings: thermal shift vs STING apoprotein; 150 μM CDN; 0.1 mg/ml protein; SYPRO Orange
T2 construct: encoded truncated human WT STING or AQ STING (amino acid residues 140-343) with N-terminal 8×His and SUMO tag; 8xHis-SUMO (N, cleaved yes); made in house; host or cells: E. coli Rosetta-gami B (DE3)
Description: (§1) WT STING and AQ STING Proteins
(§2) Purified PCR products were cleaved with restriction enzymes BamHI (cat. #R0136S, NEB, Ipswich, USA) and NotI (cat. #R0189S, NEB, Ipswich, USA) and cloned into the pSUMO vector linearized with the identical enzymes.
(§3) DNase I (cat. #D5025, Sigma Aldrich, Czech Republic) and RNase A (cat. #R6513, Sigma Aldrich, Czech Republic) were added (final concentration 50 μg/ml) together with MgCl2 (final concentration 5 mmol·l^−1) to the homogenate and bacteria were lysed using French Press G-M™ High-Pressure Cell Press Homogenizer (1500 psi, 3 cycles). […] The resin was poured into a chromatography column, washed with 50 ml buffer A (50 mmol·l^−1 TrisCl (pH 8.0), 800 mmol·l^−1 NaCl, 3 mmol·l^−1 3-mercaptol; 10% glycerol; 20 mmol·l^−1 imidazole) and 8-His-SUMO tagged STING proteins were eluted with 15 ml buffer A containing 300 mmol·l^−1 imidazole. […] Proteins were concentrated with Amicon® Ultra-15 10 K device (cat. #UFC901008, Merck Millipore, Billerica, USA) and flash frozen in liquid N2.
(§4) Differential Scanning Fluorimetry (DSF) with WT STING and AQ STING
(§5) 20 μL solutions of the reaction mixtures were pipetted in triplicates into 96 well optical reaction plates and thermal denaturation of samples were performed on real time PCR cycler (LightCycler R 480 Instrument II—Roche, Basel, Switzerland). The first derivative of the thermal denaturation curves was performed to calculate denaturing temperatures of STING-CDN complexes and STING apoproteins. The thermal shift for each CDN was calculated by subtracting the average denaturing temperature of STING apoprotein from the average denaturing temperature of STING CDN complex.

WT STING = molecular target: T3, WT STING (Homo sapiens, UniProt Q86WV6, H232R); assay: Differential Scanning Fluorimetry (DSF) with WT STING; format: binding; settings: thermal shift vs STING apoprotein; 150 μM CDN; 0.1 mg/ml protein; SYPRO Orange
T3 construct: encoded truncated human WT STING or AQ STING (amino acid residues 140-343) with N-terminal 8×His and SUMO tag; 8xHis-SUMO (N, cleaved yes); made in house; host or cells: E. coli Rosetta-gami B (DE3)
Description: as §1, §2, §3, §4, §5

T3 sequence (Q86WV6 140-343 H232R): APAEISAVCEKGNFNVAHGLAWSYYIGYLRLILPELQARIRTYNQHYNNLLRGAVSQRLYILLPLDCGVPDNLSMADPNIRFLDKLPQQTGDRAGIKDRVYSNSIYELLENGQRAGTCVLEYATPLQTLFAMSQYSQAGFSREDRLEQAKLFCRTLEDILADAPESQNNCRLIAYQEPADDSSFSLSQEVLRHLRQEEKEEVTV
T2 sequence (Q86WV6 140-343 G230A/H232R/R293Q): as the sequence (Q86WV6 140-343 H232R) above, with G91A, R154Q counted along it
T1 sequence (Q86WV6 whole entry H232R): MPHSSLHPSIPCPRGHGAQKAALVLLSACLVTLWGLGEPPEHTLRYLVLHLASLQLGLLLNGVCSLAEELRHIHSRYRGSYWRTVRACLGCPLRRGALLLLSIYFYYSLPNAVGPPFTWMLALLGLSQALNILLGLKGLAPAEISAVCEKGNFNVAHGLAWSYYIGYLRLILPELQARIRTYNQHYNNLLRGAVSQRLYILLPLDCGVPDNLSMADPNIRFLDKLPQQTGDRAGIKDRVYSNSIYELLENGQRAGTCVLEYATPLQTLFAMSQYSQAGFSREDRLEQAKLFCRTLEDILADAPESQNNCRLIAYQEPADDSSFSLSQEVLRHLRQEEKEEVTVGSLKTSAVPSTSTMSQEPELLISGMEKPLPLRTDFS

Row | Compound | EC50 [1] [nM] | ΔTm at 150 µM (AQ STING (G230A-R293Q)) [°C] | ΔTm at 150 µM (WT STING) [°C] | DSF ΔTm AQ STING (AQ STING (G230A-R293Q)) [°C] | DSF ΔTm WT STING (WT STING) [°C]
1 | Nc1ncnc2c1ncn2[C@@H]1O[C@@H]2OCP(=O)(O)OC3C(O)[C@H](n4cnc5c(N)ncnc54)O[C@@H]3COP(=O)(O)OC2C1O (stereo partly drawn) [Compound 51] | 170 | 10.6 | 4 |  | 
2 | Nc1ncnc2c1ncn2[C@@H]1O[C@@H]2OCP(=O)(O)OC3C(O)[C@H](n4cnc5c(N)nc(F)nc54)O[C@@H]3COP(=O)(O)OC2C1O (stereo partly drawn) [Compound 52] | 2200 | 6.3 | 1.1 |  | 
3 | Nc1ncnc2c1ncn2[C@@H]1O[C@@H]2OCP(=O)(O)OC3C(F)[C@H](n4cnc5c(N)nc(F)nc54)O[C@@H]3COP(=O)(O)OC2C1O (stereo partly drawn) [Compound 53] | 900 | 8.8 | 3 |  | 
4 | Nc1nc2c(nnn2[C@@H]2O[C@@H]3OCP(=O)(O)OC4C(O)[C@H](n5cnc6c(N)ncnc65)O[C@@H]4COP(=O)(O)OC3C2O)c(=O)[nH]1 (stereo partly drawn) [Compound 54] | 60 | 12.2 | 3.9 |  | 
5 | (2R,3R,3aS,7aR,9R,10R,10aR,14aR)-2,9-bis(6-amino-9H-purin-9-yl)-10-fluoro-3,5,12-trihydroxydecahydrodifuro[3,2-d:3′,2′-i][1,3,6,9]tetraoxa[2,8]diphosphacyclododecine 5,12-dioxide [Compound 33] | 110 |  |  | 12.0 | 5.7
